Results from patent US20060030616A1, “Anhydride modified cantharidin analogues useful in the treatment of cancer” (priority 1998, published 2006).

Legend:
SW480 cells = test: MTT cytotoxicity assay, 72 h; assay type: cell-based, human; settings: SW480, p53 mt; read-out: IC50 (mean ± SE) after 72 h continuous exposure
Method: (§1) Cells in a subconfluent phase are transferred to 96-well microtitre plates. L1210 cells are plated at a density of 1000 cells/well in 100 μl medium, while all other cell lines are plated at a density of 2000-25000 cells/well. The cells are left for 24 h prior to treatment to ensure exponential growth has been achieved, 24 h after plating (day 0), 100 μl of phosphatase inhibitor is added to each well, control wells received 100 μl of medium only. Drug exposure time is 72 h (day 3). The effect of phosphatase inhibition is tested in triplicate over a concentration range of […]−1×10^−8 M. Growth inhibitory effects are evaluated using the MTT assay and absorbance read at […]. The IC50 is the drug concentration at which cell growth is 50% inhibited based on the difference of optical density on day 0 and day 3 of drug exposure. Cytotoxicity is evaluated using a spectrophotometric assay which determines the percentage of cell growth following exposure of the cells to various concentrations of the phosphatase inhibitors for a period of 72 hours. The subsequent dose response curve is used to calculate IC50 values (the drug concentration at which cell growth is 50% inhibited).
(§2) Anti-cancer screening of the protein phosphatase inhibitors is assessed using the MTT assay. This assay determines cell viability by the ability of mitochondrial dehydrogenase to produce formazan crystals from 3-(4,5-dimethylthiazol-2-yl)-2,5-diphenyltetrazolium bromide. The viable cell number/well is directly proportional to the production of formazan, which following solubilization, can be measured spectrophotometrically (540 nm). This technique is also used by the National Cancer Institute to screen for new anticancer agents.
(§3) As described herein a number of cantharidin analogues have been synthesised and tested for their anticancer activity in nine cancer cell lines using the MTT assay after 72 h exposure. These new analogues are shown in FIG. 2 and have been designated MK-1 through to MK-9.

HT29 cells [1] = test: MTT cytotoxicity assay, 72 h; assay type: cell-based, human; settings: HT29, p53 mt; read-out: IC50 (mean ± SE) after 72 h continuous exposure
Method: as §1, §2, §3

HCT116 cells = test: MTT cytotoxicity assay, 72 h; assay type: cell-based, human; settings: HCT116, p53 wt; read-out: IC50 (mean ± SE) after 72 h continuous exposure
Method: as §1, §2, §3

143B cells = test: MTT cytotoxicity assay, 72 h; assay type: cell-based, human; settings: p53 mt, read-out: IC50 (mean ± SE) after 72 h continuous exposure
Method: as §1, §2, §3

WiDr cells = test: MTT cytotoxicity assay, 72 h; assay type: cell-based, human; settings: p53 mt, read-out: IC50 (mean ± SE) after 72 h continuous exposure
Method: as §1, §2, §3

HL60 cells [2] = test: MTT cytotoxicity assay, 72 h; assay type: cell-based, human; settings: HL60, p53 nul; read-out: IC50 (mean ± SE) after 72 h continuous exposure
Method: as §1, §2, §3

ADDP cells = test: MTT cytotoxicity assay, 72 h; assay type: cell-based, human; settings: p53 mt, read-out: IC50 (mean ± SE) after 72 h continuous exposure
Method: as §1, §2, §3

HT29 cells [3] = test: Cell cycle analysis, flow cytometry of propidium iodide stained cells; assay type: cell-based, human; settings: 12 h
Method: (§4) The cells are fixed in 70% ethanol and stored at −20° C. until analysis is performed (1-2 weeks). After fixing, the cells are pelleted and incubated in PBS containing propidium iodide ([…]) and RNase A (200 mg/ml) for at least 30 min at room temperature. The samples (2×10^4 events) are analysed using a Becton Dickson FACScan, fluorescence is collected in fluorescence detector 2 (FL2), filter 575/30 nm band pass. Cell cycle distribution is assessed using Cell Quest software (Becton Dickson).
(§5) The ability of the protein phosphatase inhibitors to abrogate the G1 or G2 checkpoint of the cell cycle may be determined by cell cycle analysis using flow cytometry. Briefly, asynchronous cell cultures are harvested 18 h after 6 Gy irradiation and/or 12 h incubation with the protein phosphatase inhibitor. Depending upon the p53 status of the cell line, radiation treatment alone will induce arrest in either G1 and/or G2 phase of the cell cycle.
(§6) Data shown in Table 2 and FIG. 4 show the cell cycle response of L1210, HL60, HT29 and HCT116 cells to cantharidin and the new cantharidin analogues MK-2 and MK-4 after 12 h exposure. In summary, cantharidin and MK-2 produced a similar response and induced G2 arrest in all four cell lines tested. […] HL60 and HCT116 cells. […] The magnitude of the cell cycle arrest induced by these drugs directly correlated with their cytotoxicity in the respective cell lines. […] The cytotoxicity of the […]

HL60 cells [4] = test: as above; assay type: cell-based, human; settings: for Cell Cycle Distribution, G1 / Cell Cycle Distribution, G2 + M / Cell Cycle Distribution, S / Cell Cycle Distribution, sub G1 / Cell cycle remark: 12 h
Method: as §4, §5, §6

L1210 cells = test: as above; assay type: cell-based, murine
Method: as §4, §5, §6

SMILES: O=C1OC(=O)C2C3C=CC(O3)C12 (centres unmarked) [MK-2]
- IC50 (SW480 cells): 155 ± 9 µM
- IC50 (HT29 cells [1]): 183 ± 20 µM
- IC50 (HCT116 cells): 160 ± 10 µM
- IC50 (143B cells): 248 ± 29 µM
- IC50 (WiDr cells): 198 ± 53 µM
- IC50 (HL60 cells [2]): 177 ± 3 µM
- IC50 (ADDP cells): 183 ± 17 µM
- Cell Cycle Distribution, G1 (HT29 cells [3]; HT29, 50 μM): 45.3 percentage of total
- Cell Cycle Distribution, G2 + M (HT29 cells [3]; HT29, 50 μM): 37.1 percentage of total
- Cell Cycle Distribution, S (HT29 cells [3]; HT29, 50 μM): 7.6 percentage of total
- Cell Cycle Distribution, sub G1 (HT29 cells [3]; HT29, 50 μM): 9.4 percentage of total
- Cell Cycle Distribution, G1 (HT29 cells [3]; HT29, 100 μM): 49.8 percentage of total
- Cell Cycle Distribution, G2 + M (HT29 cells [3]; HT29, 100 μM): 37.6 percentage of total
- Cell Cycle Distribution, S (HT29 cells [3]; HT29, 100 μM): 8.2 percentage of total
- Cell Cycle Distribution, sub G1 (HT29 cells [3]; HT29, 100 μM): 3.6 percentage of total
- Cell Cycle Distribution, G1 (HT29 cells [3]; HT29, 250 μM): 41.4 percentage of total
- Cell Cycle Distribution, G2 + M (HT29 cells [3]; HT29, 250 μM): 42.5 percentage of total
- Cell Cycle Distribution, S (HT29 cells [3]; HT29, 250 μM): 11.2 percentage of total
- Cell Cycle Distribution, sub G1 (HT29 cells [3]; HT29, 250 μM): 4.2 percentage of total
- Cell cycle remark (HT29 cells [3]; HT29, 250 μM): G2 arrest
- Cell Cycle Distribution, G1 (HT29 cells [3]; HT29, 500 μM): 44.5 percentage of total
- Cell Cycle Distribution, G2 + M (HT29 cells [3]; HT29, 500 μM): 33.6 percentage of total
- Cell Cycle Distribution, S (HT29 cells [3]; HT29, 500 μM): 15.4 percentage of total
- Cell Cycle Distribution, sub G1 (HT29 cells [3]; HT29, 500 μM): 5.2 percentage of total
- Cell cycle remark (HT29 cells [3]; HT29, 500 μM): S-phase↑
- Cell Cycle Distribution, G1 (HL60 cells [4]; HL60, 50 μM): 44.1 percentage of total
- Cell Cycle Distribution, G2 + M (HL60 cells [4]; HL60, 50 μM): 31.4 percentage of total
- Cell Cycle Distribution, S (HL60 cells [4]; HL60, 50 μM): 23.8 percentage of total
- Cell Cycle Distribution, sub G1 (HL60 cells [4]; HL60, 50 μM): 1.8 percentage of total
- Cell Cycle Distribution, G1 (HL60 cells [4]; HL60, 100 μM): 43.3 percentage of total
- Cell Cycle Distribution, G2 + M (HL60 cells [4]; HL60, 100 μM): 32.4 percentage of total
- Cell Cycle Distribution, S (HL60 cells [4]; HL60, 100 μM): 23.6 percentage of total
- Cell Cycle Distribution, sub G1 (HL60 cells [4]; HL60, 100 μM): 1.8 percentage of total
- Cell Cycle Distribution, G1 (HL60 cells [4]; HL60, 250 μM): 37.7 percentage of total
- Cell Cycle Distribution, G2 + M (HL60 cells [4]; HL60, 250 μM): 36.4 percentage of total
- Cell Cycle Distribution, S (HL60 cells [4]; HL60, 250 μM): 23.8 percentage of total
- Cell Cycle Distribution, sub G1 (HL60 cells [4]; HL60, 250 μM): 3.2 percentage of total
- Cell cycle remark (HL60 cells [4]; HL60, 250 μM): G2 arrest
- Cell Cycle Distribution, G1 (HL60 cells [4]; HL60, 500 μM): 17.8 percentage of total
- Cell Cycle Distribution, G2 + M (HL60 cells [4]; HL60, 500 μM): 43.1 percentage of total
- Cell Cycle Distribution, S (HL60 cells [4]; HL60, 500 μM): 21.6 percentage of total
- Cell Cycle Distribution, sub G1 (HL60 cells [4]; HL60, 500 μM): 18.8 percentage of total
- Cell cycle remark (HL60 cells [4]; HL60, 500 μM): Cell death
- Cell cycle response (HL60 cells [4]; HL60, 12 h exposure): G2 arrest
- Cell Cycle Distribution, G1 (L1210 cells; L1210, 50 μM, 12 h): 42.7 percentage of total
- Cell Cycle Distribution, G2 + M (L1210 cells; L1210, 50 μM, 12 h): 31.7 percentage of total
- Cell Cycle Distribution, S (L1210 cells; L1210, 50 μM, 12 h): 26.2 percentage of total
- Cell Cycle Distribution, sub G1 (L1210 cells; L1210, 50 μM, 12 h): 0.3 percentage of total
- Cell Cycle Distribution, G1 (L1210 cells; L1210, 100 μM, 12 h): 45.2 percentage of total
- Cell Cycle Distribution, G2 + M (L1210 cells; L1210, 100 μM, 12 h): 32.4 percentage of total
- Cell Cycle Distribution, S (L1210 cells; L1210, 100 μM, 12 h): 22.4 percentage of total
- Cell Cycle Distribution, sub G1 (L1210 cells; L1210, 100 μM, 12 h): 0.6 percentage of total
- Cell Cycle Distribution, G1 (L1210 cells; L1210, 250 μM, 12 h): 46.7 percentage of total
- Cell Cycle Distribution, G2 + M (L1210 cells; L1210, 250 μM, 12 h): 36.7 percentage of total
- Cell Cycle Distribution, S (L1210 cells; L1210, 250 μM, 12 h): 14.3 percentage of total
- Cell Cycle Distribution, sub G1 (L1210 cells; L1210, 250 μM, 12 h): 2.4 percentage of total
- Cell Cycle Distribution, G1 (L1210 cells; L1210, 500 μM, 12 h): 26.3 percentage of total
- Cell Cycle Distribution, G2 + M (L1210 cells; L1210, 500 μM, 12 h): 60.0 percentage of total
- Cell Cycle Distribution, S (L1210 cells; L1210, 500 μM, 12 h): 10.1 percentage of total
- Cell Cycle Distribution, sub G1 (L1210 cells; L1210, 500 μM, 12 h): 3.9 percentage of total
- Cell cycle remark (L1210 cells; L1210, 500 μM, 12 h): G2 arrest
- Cell cycle response (L1210 cells; L1210, 12 h exposure): G2 arrest
